Experimental data from patent US20260297164A1, “ANTI-FIBROTIC PEPTIDES AND USES THEREOF” (Deackt, Inc., priority 2021, published 2026).

Tested on: mouse lung fibroblasts
Assay: FasL-induced cell death of TGF-β1-stimulated mouse lung fibroblasts
Format: cell-based
Conditions: wild-type cells, TGF-β1 stimulation; FasL 200 ng/ml
Source text: FIG. 2. CD148 deficiency in fibroblasts worsens pulmonary fibrosis in bleomycin-treated mice and increases fibroblast activation in response to TGF-β1. CD148 fibroblast-specific knockout mice (Ptprj^fl/fl Col1a2^Cre-ER(T)+/0 were developed as described in Methods. (A) Ptprj^fl/fl Col1a2^Cre-ER(T)+/0 mice or Col1a2^Cre-ER(T)+/0 (wild type) mice were exposed to BLM to induce lung fibrosis. At day 21, mouse lungs were harvested and stained with Masson's trichrome (n=3 for saline and n=5 for BLM groups). (B) Hydroxyproline content was measured in the left lung of Ptprj^fl/fl Col1a2^Cre-ER(T)+/0 mice (n=12) and Col1a2^Cre-ER(T)+/0 (WT) mice (n=12) exposed to BLM, and Ptprj^fl/fl Col1a2^Cre-ER(T)+/0 (n=6) and Col1a2^Cre-ER(T)+/0 (n=6) exposed to saline; at day 21. (C) Relative survival at day 0-21 after BLM. (D-E), α-SMA and CD148 expression in harvested lungs were measured by western blot (n=3-5 for each condition). (F-G) Gene expression of Fn and Col1a1, and Ctgf in harvested lungs was measured using qPCR (n=5 for each condition). […] (I) mRNA levels of Col1a1 and Fn were measured by qPCR (n=5 for each condition). […] Gel contractility was measured at 0, 12 and 24 h after TGF-β1 (10 ng/ml) stimulation (n=6 for each condition). […] At 24 h, cell viability was measured with MTT assay (n=5 for each condition). […]

TGF-β1
FasL-induced cell death and apoptosis: induced resistance
